BindingDB's records for doi:10.1021/jm030008u (Nida-Irp, 2003)

Assay: Binding affinity against Sigma receptor type 1 was determined by the displacement of [3H]pentazocine radioligand

| Ki [nM] | SMILES |
| --- | --- |
| 552 | C[C@@H]1CN(CCCn2c3ccccc3c3ccccc32)C[C@@H](C)N1C [9-[3-(3,4,5-Trimethyl-piperazin-1-yl)-propyl]-9H-carbazole] |
| 596 | C[C@@H]1CN(CCCn2c3ccccc3c3cc([N+](=O)[O-])ccc32)C[C@@H](C)N1 [9-[3-(3,5-Dimethyl-piperazin-1-yl)-propyl]-3-nitro-9H-carbazole] |
| 5720 | C[C@@H]1CN(CCCn2c3ccccc3c3cc(N)ccc32)C[C@@H](C)N1 [9-[3-(3,5-Dimethyl-piperazin-1-yl)-propyl]-9H-carbazol-3-ylamine] |
| 29.6 | C[C@@H]1CN(CCCN(c2ccccc2)c2ccccc2)C[C@@H](C)N1CCc1ccc(Cl)c(Cl)c1 [(3-{(3R,5R)-4-[2-(3,4-Dichloro-phenyl)-ethyl]-3,5-dimethyl-piperazin-1-yl}-propyl)-diphenyl-amine] |
| 124 | C[C@@H]1CN(CCCN(c2ccc(F)cc2)c2ccc(F)cc2)C[C@@H](C)N1 [[3-((3R,5R)-3,5-Dimethyl-piperazin-1-yl)-propyl]-bis-(4-fluoro-phenyl)-amine] |
| 138 | C[C@@H]1CN(CCCN(c2ccccc2)c2ccccc2)C[C@@H](C)N1 [[3-((3R,5R)-3,5-Dimethyl-piperazin-1-yl)-propyl]-diphenyl-amine] |
| 11.1 | C[C@@H]1CN(CCCN(c2ccc(F)cc2)c2ccc(F)cc2)C[C@@H](C)N1CCCc1ccccc1 [{3-[3,5-Dimethyl-4-(3-phenyl-propyl)-piperazin-1-yl]-propyl}-bis-(4-fluoro-phenyl)-amine] |
| 97.2 | C[C@@H]1CN(CCCN(c2ccccc2)c2ccccc2)C[C@@H](C)N1CCCc1ccccc1 [{3-[3,5-Dimethyl-4-(3-phenyl-propyl)-piperazin-1-yl]-propyl}-diphenyl-amine] |

The remaining lines, values behind:

| SMILES | Ki [nM] |
| --- | --- |
| C[C@@H]1CN(CCCn2c3ccc(Br)cc3c3cc(Br)ccc32)C[C@@H](C)N1 [3,6-Dibromo-9-[3-(3,5-dimethyl-piperazin-1-yl)-propyl]-9H-carbazole] | 4420 |
| C[C@@H]1CN(CCCn2c3ccccc3c3ccccc32)C[C@@H](C)N1CCCc1ccccc1 [9-{3-[3,5-Dimethyl-4-(3-phenyl-propyl)-piperazin-1-yl]-propyl}-9H-carbazole] | 104 |
| C[C@@H]1CN(CCCN(c2ccc(F)cc2)c2ccc(F)cc2)C[C@@H](C)N1CCc1ccc(Cl)c(Cl)c1 [(3-{(3R,5R)-4-[2-(3,4-Dichloro-phenyl)-ethyl]-3,5-dimethyl-piperazin-1-yl}-propyl)-bis-(4-fluoro-phenyl)-amine] | 32.5 |
| Fc1ccc(N(CCCN2CCNCC2)c2ccc(F)cc2)cc1 [Bis-(4-fluoro-phenyl)-(3-piperazin-1-yl-propyl)-amine] | 1390 |
| Fc1ccc(N(CCCN2CCN(CCCc3ccccc3)CC2)c2ccc(F)cc2)cc1 [Bis-(4-fluoro-phenyl)-{3-[4-(3-phenyl-propyl)-piperazin-1-yl]-propyl}-amine] | 66.2 |
| Fc1ccc(N(CCCN2CCN(Cc3ccccc3)CC2)c2ccc(F)cc2)cc1 [N-(3-(4-benzylpiperazin-1-yl)propyl)-4-fluoro-N-(4-fluorophenyl)benzenamine] | 13.1 |
| CCN(CC)CCOCCOC(=O)C1(c2ccccc2)CCCC1 [SMR000326757] | 19.5 |
